Measured values reported in patent US8563714B2, “Bridged spiro [2.4] heptane derivatives as ALX receptor and/or FPRL2 agonists” (Actelion Pharmaceuticals Ltd., priority 2009, dated 2013).

Columns and labels:
human FPRL2 = biological target: T1, human FPRL2 (Homo sapiens, UniProt P25089); test: Intracellular calcium measurements (FLIPR), agonistic activity in HEK293-hFPRL2-Gα16 cells; assay type: cell-based; conditions: Fluo-4 calcium FLIPR, normalized to GLY14-Humanin 100 nM
T1 construct: expressed in transfected cells; host or cells: HEK293 (HEK293-hFPRL2-Gα16)
T1 sequence (P25089 1-353): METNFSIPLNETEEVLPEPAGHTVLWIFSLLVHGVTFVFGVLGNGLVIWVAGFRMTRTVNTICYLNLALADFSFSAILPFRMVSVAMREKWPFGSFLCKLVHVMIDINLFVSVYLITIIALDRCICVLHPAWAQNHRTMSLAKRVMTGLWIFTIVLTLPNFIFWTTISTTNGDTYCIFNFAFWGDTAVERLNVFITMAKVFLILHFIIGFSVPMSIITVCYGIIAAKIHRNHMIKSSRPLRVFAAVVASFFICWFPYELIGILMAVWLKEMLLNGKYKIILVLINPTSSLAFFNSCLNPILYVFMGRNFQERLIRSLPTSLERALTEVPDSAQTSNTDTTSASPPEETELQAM
How it was run: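 Peak values after baseline subtraction are expressed relative to 100 nM Gly14-Humanin; compounds diluted in assay buffer from 10 mM DMSO stocks.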

human ALX receptor = biological target: T2, human ALX receptor (Homo sapiens, UniProt P25090); test: Intracellular calcium measurements (FLIPR), agonistic activity in HEK293-hALXR-Gα16 cells; assay type: cell-based; conditions: Fluo-4 calcium FLIPR, normalized to WKYMVm 10 nM
T2 construct: expressed in transfected cells; host or cells: HEK293 (HEK293-hALXR-Gα16)
T2 sequence (P25090 1-351): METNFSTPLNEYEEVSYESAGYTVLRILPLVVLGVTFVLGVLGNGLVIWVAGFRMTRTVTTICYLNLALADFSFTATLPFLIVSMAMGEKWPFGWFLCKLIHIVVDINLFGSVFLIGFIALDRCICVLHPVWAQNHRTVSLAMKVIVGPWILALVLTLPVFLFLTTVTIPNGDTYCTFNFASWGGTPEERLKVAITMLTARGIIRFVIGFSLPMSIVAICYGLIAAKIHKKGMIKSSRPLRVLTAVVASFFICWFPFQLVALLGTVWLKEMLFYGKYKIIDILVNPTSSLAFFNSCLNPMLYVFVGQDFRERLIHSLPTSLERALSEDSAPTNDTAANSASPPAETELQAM
How it was run: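 Agonist-induced calcium flux was recorded by FLIPR (488/540 nm) in HEK293-hALXR-Gα16 cells pre-loaded with Fluo-4 AM (1 μM, 60 min, 37°C). Peak signal above baseline, after subtracting buffer addition, was expressed relative to WKYMVm at 10 nM final.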

Compound `O=C(NCCCN1CCCC1)[C@H]1[C@H](C(=O)NCc2ccc(Br)cc2)[C@@H]2C=C[C@H]1C21CC1` (racemic) [Example 236, (5R*)—N^5-(4-Bromo-phenyl-methyl)-(6R*)—N^6-(3-pyrrolidin-1-yl-propyl)-(4S*,7R*)-[4,7-ethenylene-spiro[2.4]heptane]-5,6-dicarboxamide] has an EC50 (human FPRL2) of 292 nM and an EC50 (human ALX receptor) of 49 nM.
With `O=C(NCCCN1CCCC1)[C@H]1[C@H](C(=O)Nc2ncc(Br)s2)[C@@H]2C=C[C@H]1C21CC1` (racemic) [Example 237, (5R*)—N^5-(5-Bromo-thiazol-2-yl)-(6R*)—N^6-(3-pyrrolidin-1-yl-propyl)-(4S*,7R*)-[4,7-ethenylene-spiro[2.4]heptane]-5,6-dicarboxamide] the EC50 (human FPRL2) was 542 nM and the EC50 (human ALX receptor) was 305 nM.
`CC(=O)c1coc(CNC(=O)[C@H]2[C@H](C(=O)NCCCCN3CCCC3)[C@H]3C=C[C@@H]2C32CC2)n1` (racemic) [Example 243, (5R*)—N^5-(4-Acetyl-oxazol-2-yl-methyl)-(6R*)—N^6-(4-pyrrolidin-1-yl-butyl)-(4S*,7R*)-[4,7-ethenylene-spiro[2.4]heptane]-5,6-dicarboxamide] showed an EC50 (human FPRL2) of 2300 nM and an EC50 (human ALX receptor) of 170 nM.
With `CC(=O)c1csc(CNC(=O)[C@H]2[C@H](C(=O)NCC(C)C)[C@H]3C=C[C@@H]2C32CC2)n1` (racemic) [Example 244, (5R*)—N^5-(4-Acetyl-thiazol-2-yl-methyl)-(6R*)—N^6-(isobutyl)-(4S*,7R*)-[4,7-ethenylene-spiro[2.4]heptane]-5,6-dicarboxamide] the EC50 (human FPRL2) was > 25000 nM and the EC50 (human ALX receptor) was 369 nM.
`CC(C)CNC(=O)[C@H]1[C@H](C(=O)NCc2ccc(Br)cc2)[C@@H]2C=C[C@H]1C21CC1` (racemic) [Example 246, (5R*)—N^5-(4-Bromo-phenyl-methyl)-(6R*)—N^6-(isobutyl)-(4S*,7R*)-[4,7-ethenylene-spiro[2.4]heptane]-5,6-dicarboxamide] showed an EC50 (human FPRL2) of 5330 nM and an EC50 (human ALX receptor) of 191 nM.
`CC(=O)c1csc(CNC(=O)[C@H]2[C@H](C(=O)NCCCc3nc4ccccc4[nH]3)[C@H]3C=C[C@@H]2C32CC2)n1` (racemic) [Example 247, (5R*)—N^5-(4-Acetyl-thiazol-2-yl-methyl)-(6R*)—N^6-(3-(1H-benzoimidazol-2-yl)-propyl)-(4S*,7R*)-[4,7-ethenylene-spiro[2.4]heptane]-5,6-dicarboxamide] showed an EC50 (human FPRL2) of 1080 nM and an EC50 (human ALX receptor) of 106 nM.
Work on `O=C(NCCCc1nc2ccccc2[nH]1)[C@H]1[C@H](C(=O)Nc2ncc(Br)s2)[C@@H]2C=C[C@H]1C21CC1` (racemic) [Example 248, (5R*)—N^5-(5-Bromo-thiazol-2-yl)-(6R*)—N^6-(3-(1H-benzoimidazol-2-yl)-propyl)-(4S*,7R*)-[4,7-ethenylene-spiro[2.4]heptane]-5,6-dicarboxamide] yielded an EC50 (human FPRL2) of 3060 nM and an EC50 (human ALX receptor) of 174 nM.
Compound `O=C(NCCCc1nc2ccccc2[nH]1)[C@H]1[C@H](C(=O)NCc2ccc(Br)cc2)[C@@H]2C=C[C@H]1C21CC1` (racemic) [Example 249, (5R*)—N^5-(4-Bromo-phenyl-methyl)-(6R*)—N^6-(3-(1H-benzoimidazol-2-yl)-propyl)-(4S*,7R*)-[4,7-ethenylene-spiro[2.4]heptane]-5,6-dicarboxamide] has an EC50 (human FPRL2) of 47 nM and an EC50 (human ALX receptor) of 216 nM.
Work on `COc1ccc(NC(=O)[C@H]2[C@H](C(=O)NCCCCN3CCCC3)[C@H]3C=C[C@@H]2C32CC2)cn1` (racemic) [Example 250, (5R*)—N^5-(2-Methoxy-pyrid-5-yl)-(6R*)—N^6-(4-pyrrolidin-1-yl-butyl)-(4S*,7R*)-[4,7-ethenylene-spiro[2.4]heptane]-5,6-dicarboxamide] yielded an EC50 (human FPRL2) of 746 nM and an EC50 (human ALX receptor) of 673 nM.
Work on `O=C(NCCCCN1CCCC1)[C@H]1[C@H](C(=O)Nc2cnc(Br)cn2)[C@@H]2C=C[C@H]1C21CC1` (racemic) [Example 251, (5R*)—N^5-(2-Bromo-pyrazin-5-yl)-(6R*)—N^6-(4-pyrrolidin-1-yl-butyl)-(4S*,7R*)-[4,7-ethenylene-spiro[2.4]heptane]-5,6-dicarboxamide] yielded an EC50 (human FPRL2) of 558 nM and an EC50 (human ALX receptor) of 7.9 nM.
Compound `O=C(NCCCCN1CCCC1)[C@H]1[C@H](C(=O)Nc2ccc(C(F)(F)F)cn2)[C@@H]2C=C[C@H]1C21CC1` (racemic) [Example 252, (5R*)—N^5-(5-Trifluoromethyl-pyridin-2-yl)-(6R*)—N^6-(4-pyrrolidin-1-yl-butyl)-(4S*,7R*)-[4,7-ethenylene-spiro[2.4]heptane]-5,6-dicarboxamide] has an EC50 (human FPRL2) of 210 nM and an EC50 (human ALX receptor) of 82 nM.
`O=C(NCCCCN1CCCC1)[C@H]1[C@H](C(=O)Nc2ccc3ncoc3c2)[C@@H]2C=C[C@H]1C21CC1` (racemic) [Example 254, (5R*)—N^5-(Benzo[d]oxazol-6-yl)-(6R*)—N^6-(4-pyrrolidin-1-yl-butyl)-(4S*,7R*)-[4,7-ethenylene-spiro[2.4]heptane]-5,6-dicarboxamide] gave an EC50 (human FPRL2) of 67 nM and an EC50 (human ALX receptor) of 492 nM.
Compound `Cc1cc(CNC(=O)[C@H]2[C@H](C(=O)NCCCCN3CCCC3)[C@H]3C=C[C@@H]2C32CC2)no1` (racemic) [Example 255, (5R*)—N^5-(5-Methyl-isoxazol-3-yl-methyl)-(6R*)—N^6-(4-pyrrolidin-1-yl-butyl)-(4S*,7R*)-[4,7-ethenylene-spiro[2.4]heptane]-5,6-dicarboxamide] has an EC50 (human FPRL2) of 489 nM and an EC50 (human ALX receptor) of 40 nM.
In the case of `Cc1csc(NC(=O)[C@H]2[C@H](C(=O)NCCCCN3CCCC3)[C@H]3C=C[C@@H]2C32CC2)n1` (racemic) [Example 256, (5R*)—N^5-(4-Methyl-thiazol-2-yl)-(6R*)—N^6-(4-pyrrolidin-1-yl-butyl)-(4S*,7R*)-[4,7-ethenylene-spiro[2.4]heptane]-5,6-dicarboxamide], the EC50 (human FPRL2) is reported as 348 nM and the EC50 (human ALX receptor) is reported as 6720 nM.
Compound `O=C(NCCCCN1CCCC1)[C@H]1[C@H](C(=O)Nc2nnc(C(F)(F)F)s2)[C@@H]2C=C[C@H]1C21CC1` (racemic) [Example 257, (5R*)—N^5-(5-Trifluoromethyl-1,3,4-thiadiazol-2-yl)-(6R*)—N^6-(4-pyrrolidin-1-yl-butyl)-(4S*,7R*)-[4,7-ethenylene-spiro[2.4]heptane]-5,6-dicarboxamide] has an EC50 (human FPRL2) of 167 nM and an EC50 (human ALX receptor) of 6010 nM.
With `O=C(NCCF)[C@H]1[C@H](C(=O)Nc2ncc(Br)s2)[C@@H]2C=C[C@H]1C21CC1` (racemic) [Example 259, (5R*)—N^5-(5-Bromo-thiazol-2-yl)-(6R*)—N^6-(2-fluoro-ethyl)-(4S*,7R*)-[4,7-ethenylene-spiro[2.4]heptane]-5,6-dicarboxamide] the EC50 (human FPRL2) was > 25000 nM and the EC50 (human ALX receptor) was 354 nM.
Work on `O=C(NCCN1CCNC1=O)[C@H]1[C@H](C(=O)Nc2ncc(Br)s2)[C@@H]2C=C[C@H]1C21CC1` (racemic) [Example 260, (5R*)—N^5-(5-Bromo-thiazol-2-yl)-(6R*)—N^6-((2-imidazolidin-2-on)-1-yl-ethyl)-(4S*,7R*)-[4,7-ethenylene-spiro[2.4]heptane]-5,6-dicarboxamide] yielded an EC50 (human FPRL2) of 8730 nM and an EC50 (human ALX receptor) of 9.1 nM.
With `CC(=O)c1csc(CNC(=O)[C@H]2[C@H](C(=O)NCCC(N)=O)[C@H]3C=C[C@@H]2C32CC2)n1` (racemic) [Example 261, (5R*)—N^5-(4-Acetyl-thiazol-2-yl-methyl)-(6R*)—N^6-(3-amino-3-oxopropyl)-(4S*,7R*)-[4,7-ethenylene-spiro[2.4]heptane]-5,6-dicarboxamide] the EC50 (human FPRL2) was > 25000 nM and the EC50 (human ALX receptor) was 297 nM.
